Consider one substance from patent US9157904B2, “Wnt antagonists and methods of treatment and screening” (OncoMed Pharmaceuticals, Inc., priority 2010, dated 2015).

The test system of data set [1] is C28 colon tumor xenografts. As to the kind of experiment: C28 colon tumor xenograft, doses and dosing regimen. It counts as in vivo, NOD/SCID mice. The conditions noted are these: from day 2. On the procedure: The effect of multiple doses and dosing regimen of FZD8-Fc (54F03) on the growth of C28 colon tumor xenografts was analyzed. Dissociated C28 cells (10,000 per animal) were injected subcutaneously into 6-8 week old male NOD/SCID mice. On day 2, mice were randomized into 6 groups of 10 animals each. Animals were injected with either control antibody or FZD8-Fc at doses of 1.5 mg/kg (twice a week), 5 mg/kg (once and twice a week) and 15 mg/kg (once and twice a week). Administration of the antibody and FZD8-Fc was performed via injection into the intraperitoneal cavity. Tumor growth was monitored weekly and tumor measurements were initiated once tumors were palpable. Tumors were measured twice a week and tumor volume was determined as described herein.

Data set [2] relates to PN21 tumors. As to the kind of experiment: Alcian blue and Ki67 staining of treated PN21 tumors. It counts as in vivo, NOD/SCID mice. On the procedure: The cell differentiation capability of FZD8-Fc was also evaluated in the OMP-PN21 pancreas tumor xenograft model. PN21 tumors from studies described in Example 8 were harvested and fixed in formalin, embedded in paraffin, and tumor sections of 4 μm thickness were cut. After deparaffinization and hydration, the tumor sections were subjected to an antigen retrieval process in Tris buffer (pH 9.5). Sections were incubated with hydrogen peroxide (Sigma-Aldrich, St Louis, Mo.) for 10 minutes to block endogenous peroxidases. Anti-Ki67 antibody (clone MIB-1, Dako, Carpinteria, Calif.) in blocking buffer (3% NHS, 1% BSA, 0.1% Tween-20 in PBS) at 1:200 dilution was added to each section and incubated for 1 hour. Slides were rinsed 3 times in PBST for 5 minutes each. Anti-mouse secondary antibody conjugated with HRP (ImmPRESS™ anti-mouse, Vector Laboratories Inc., Burlingame, Calif.) was added to the slides and incubated for 30 minutes. After multiple washes with PBST, Vector Nova Red substrate (Vector Laboratories Inc., Burlingame, Calif.) was added for localization of Ki67 antigen. The sections were treated with aqueous acetic acid for 5 minutes at room temperature. The sections were then treated with 1% alcian blue in 3% aqueous acetic acid for 30 minutes and washed with water. Sections were counter-stained in neutral fast red, dehydrated and mounted. […]

The subject of data set [3] is canonical Wnt signaling pathway. As to the kind of experiment: Luciferase reporter assay in STF293 cells with Wnt3a-conditioned medium. Particulars: blocking of Wnt3a-induced luciferase in STF293 cells; relative to reference standard set at 100%. It counts as cell-based. On the procedure:
The ability of the FZD8-Fc variants to block or inhibit activation of the Wnt signaling pathway was determined in vitro using a luciferase reporter assay. STF293 cells were cultured in DMEM supplemented with antibiotics and 10% FCS. The STF293 cells are stably transfected with a reporter vector containing seven copies of the TCF transcriptional response element linked to a promoter upstream of a firefly luciferase reporter gene. This construct measures the activity of the canonical Wnt signaling pathway. The cells were added to cultures plates at 10,000 cells per well. After an overnight incubation the FZD8-Fc variants or control mouse JAG1-Fc were added in combination with Wnt3a-conditioned medium. The FZD8-Fc variants and JAG1-Fc were used at concentrations of 20, 4, 0.8, 0.16, 0.03, 0.006, 0.0012, and 0.0003 ug/ml. The cells were incubated in 25% Wnt3A-conditioned medium that had been prepared from L cells that stably express Wnt3a. After overnight incubation (approximately 18 hrs), luciferase levels were measured using a Steady-Glo® luciferase assay kit (Promega, Madison, Wis.).
The blocking activity of the FZD8-Fc variants was determined and is presented in Table 3 as relative activity as compared to the same reference standard run in each assay which was set at 100%.
In general terms: Reporter assays use an easily measured gene product as a stand-in for the process of interest.

The test system of data set [4] is PN4 tumors. In words: FACS for ESA, CD44 and CD201 on PN4 tumors treated with variants. In kind it is in vivo, NOD/SCID mice. The conditions noted are these: vs control antibody. On the procedure: Pancreatic tumor cells from the tumor-bearing mice described above were harvested and minced into approximately 1 mm^3 fragments, followed by enzymatic digestion at 1 gram per 10 ml of 300 μg/ml collagenase and 200 U/ml DNase I for 2 hours at 37° C./5% CO2 with intermittent mixing with a 10 ml pipet to disperse cells. Digestion was stopped by adding an equal volume of FACS buffer (1× Hanks Buffered Saline Solution (HBSS), 2% heat-inactivated Fetal Calf Serum (FCS) and 2 mM HEPES pH 7.4). Cells were filtered through 40 μm nylon filters and collected by centrifugation at 150×g for 5 minutes. Red blood cells were lysed in a hypotonic buffer containing ammonium chloride for 2 minutes on ice, and the cells were washed again with excess FACS buffer, and resuspended with FACS buffer at 1×10^7 cells/ml.
The freshly prepared single cell suspensions were stained for 20 minutes on ice with biotinylated anti-mouse H-2Kd (clone SF1-1.1, Biolegend, San Diego, Calif.) at 5 μg/ml, biotinylated anti-mouse CD45 (30-F11, Biolegend) at […], and streptavidin-PerCP-Cy5.5 (eBioscience, San Diego, Calif.) at 1:200 dilution. Unbound antibody was removed by washing twice with 10 volume of FACS buffer. […]

The test system of data set [5] is C28 colon tumor. In words: C28 colon tumor xenograft, FZD8-Fc variants (Example 17). It counts as in vivo, NOD/SCID mice. The conditions noted are these: C28 established tumors; 15 mg/kg i.p. twice a week; after three weeks of treatment. On the procedure:
Dissociated C28 colon tumor cells (10,000 cells) were injected subcutaneously into 6-8 week old male NOD/SCID mice. Tumors were allowed to grow for 56 days until they reached an average volume of 175 mm^3. The mice were randomized (n=10 per group) and treated with FZD8-Fc constructs 54F03, 54F23, 54F26, or a control antibody at a dose of 15 mg/kg twice a week. Administration of the FZD8-Fc variants and control antibody was performed via injection into the intraperitoneal cavity. Tumor growth was monitored and tumor volumes were measured with electronic calipers at the indicated time points. Data are expressed as mean±S.E.M.

A short description of data set [6]: Pharmacokinetics of FZD8-Fc variants in rats. The conditions noted are these: rat, tail vein, 10 mg/kg, plasma.
Method: The pharmacokinetics of several FZD8-Fc variants were assessed in rats in a two week pharmacokinetics (PK) study. […] Sprague Dawley rats, five males in each group, were dosed with FZD8-Fc variants via the tail vein at 10 mg/kg and followed for two weeks with samples collected at time points 1, 24, 48, 72, 96, 168, 240, and 336 hours. At each time point, 1 ml of blood was collected into potassium-EDTA tubes and centrifuged. The plasma supernatants were collected and frozen until the samples were analyzed.
The level of FZD8-Fc variant protein present in the plasma at each time point was quantified and the half-life of each FZD8-Fc variant was calculated.

Several values for one entry are separate records, joined by “and”; a condition that tells them apart may be missing. Equal entries are not always repeated.

Regarding “54F03: Fri domain of human FZD8 fused to human IgG1 Fc with GRA linker; SEQ ID NO:1”, the “reduction of growth over control antibody” value in data set [1] (1.5 mg/kg twice a week i.p.) is 52%. Further, the “reduction in tumor growth over control antibody” value in data set [1] (15 mg/kg twice weekly i.p.) was determined as 83%. In data set [2], the “proliferating cells denoted by expression of Ki67” value is on record as “decrease in proliferating cells”. Further, the “cells expressing sialomucins (alcian blue)” value in data set [2] (vs control antibody or gemcitabine alone) was “increase in cells expressing sialomucins”. Further, the “% Relative Activity” value in data set [3] was 107% and 143%. Also, in data set [4], the “percentage of CD44^hi cells” value is reported as “decreased the percentage of CD44^hi cells” and the “percentage of CD201^+CD44^+ cells” value was “decreased the percentage of CD201^+CD44^+ cells”. Moreover, the “reduction of tumor growth as compared to control antibody” value in data set [5] is listed as 48%. Further, the t1/2 in hours in data set [6] is 162 h.
